# Where two headings read alike, the source gives them in different places.
# Experiments:
# [1] = biological target: human BACE1 (Homo sapiens, UniProt P56817); experiment: BACE-1 fluorescent kinetic assay (Example 88); format: biochemical
# Protocol: Evaluation of BACE-1 Binding Affinity of Test Compounds
# Fluorescent Kinetic Assay
# Dilution and mixing steps: total reaction volume: 100 μL
# 100 μM substrate dilution in 1× PBS was prepared, and
# Fluorescence Readings: Readings at Aex 320 nm and Aem 420 nm are taken every 40 sec for 30 min at room temperature and the linear slope for substrate cleavage rate (vi) determined.
# [2] = 10 nM enzyme, 25 μM substrate WABC-6, Na-Acetate pH 4.5, room temperature, read-out: BACE1 (IC50 μM)
# human BACE1, sequence (P56817 46-501): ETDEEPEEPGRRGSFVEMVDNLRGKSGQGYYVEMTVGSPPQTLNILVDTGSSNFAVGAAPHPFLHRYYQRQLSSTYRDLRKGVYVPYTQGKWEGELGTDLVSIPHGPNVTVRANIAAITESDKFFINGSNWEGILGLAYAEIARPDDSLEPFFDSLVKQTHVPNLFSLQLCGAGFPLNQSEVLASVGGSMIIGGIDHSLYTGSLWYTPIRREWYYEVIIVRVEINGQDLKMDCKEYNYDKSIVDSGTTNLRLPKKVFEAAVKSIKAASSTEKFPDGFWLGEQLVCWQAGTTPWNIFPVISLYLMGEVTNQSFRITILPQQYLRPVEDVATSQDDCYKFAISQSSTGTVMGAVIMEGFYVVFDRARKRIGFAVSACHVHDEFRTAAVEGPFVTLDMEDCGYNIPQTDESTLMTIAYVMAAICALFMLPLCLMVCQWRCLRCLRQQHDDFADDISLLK
Compound,melting point,"IC50 [1, 2] [µM]",IC50 [1] [µM]
"CN1C(=O)C(c2cccc(-c3ccccc3)c2)(C2CCN(C(=O)c3ccc(C#N)cc3)CC2)N=C1N (stereo not drawn) [Example 16, 4-({4-[2-amino-4-(1,1′-biphenyl-3-yl)-1-methyl-5-oxo-4,5-dihydro-1H -imidazol-4-yl]piperidin-1-yl}carbonyl)benzonitrile]",152 to 154 °C,0.01 to 1,
"CN1C(=O)C(c2cccc(-c3ccccc3)c2)(C2CCN(C(=O)c3ccccc3C#N)CC2)N=C1N (stereo not drawn) [Example 18, 2-({4-[2-amino4-(1,1′-biphenyl-3-yl)-1-methyl-5-oxo-4,5-dihydro-1H -imidazol-4-yl]piperidin-1-yl}carbonyl)benzonitrile]",144 to 146 °C,> 3,
"CCCc1ccc(C(=O)N2CCC(C3(c4cccc(-c5ccccc5)c4)N=C(N)N(C)C3=O)CC2)cc1 (stereo not drawn) [Example 21, 2-amino-5-(1,1′-biphenyl-3-yl)-3-methyl-5-[1-(4-propylbenzoyl)piperidin4-yl]-3,5-dihydro4H-imidazol-4-one]",133 to 135 °C,0.01 to 1,
"CN1C(=O)C(c2ccccc2)(C2CCNCC2)N=C1N (stereo not drawn) [Example 27, 2-Amino-3-methyl-5-phenyl-5-piperidin-4-yl-3,5-dihydro-4H -imidazol-4-one]",269 to 271 °C,,> 3
COCC(=O)Nc1cccc(C2(C3CCN(C(=O)c4ccc(OCc5ccccc5)cc4)CC3)N=C(N)N(C)C2=O)c1 (stereo not drawn) [Example 33],149 to 152 °C,0.01 to 1,
"COCC(=O)Nc1cccc(C2(C3CCN(C(=O)c4ccc(O)cc4)CC3)N=C(N)N(C)C2=O)c1 (stereo not drawn) [Example 34, N-(3-{2-Amino-4-[1-(4-hydroxybenzoyl)piperidin4-yl]-1-methyl-5-oxo-4,5-dihydro-1H-imidazol-4-yl}phenyl)-2-methoxyacetamide]",184 to 187 °C,0.01 to 1,
COCC(=O)Nc1cccc(C2(C3CCN(C(=O)C4CC4)CC3)N=C(N)N(C)C2=O)c1 (stereo not drawn) [Example 37],> 130 °C (dec.),0.01 to 1,
COCC(=O)Nc1cccc(C2(C3CCN(C(=O)C(C)C)CC3)N=C(N)N(C)C2=O)c1 (stereo not drawn) [Example 42],145 to 148 °C,0.01 to 1,
COCC(=O)Nc1cccc(C2(C3CCN(C(=O)C4CCC(=O)O4)CC3)N=C(N)N(C)C2=O)c1 (stereo not drawn) [Example 44],118 to 120 °C,0.01 to 1,
COCC(=O)Nc1cccc(C2(C3CCN(C(=O)CCC(C)C)CC3)N=C(N)N(C)C2=O)c1 (stereo not drawn) [Example 49],105 to 107 °C,0.01 to 1,
COCC(=O)Nc1cccc(C2(C3CCN(C(=O)c4cccc(F)c4)CC3)N=C(N)N(C)C2=O)c1 (stereo not drawn) [Example 50],150 to 153 °C,0.01 to 1,
COCC(=O)Nc1cccc(C2(C3CCN(C(=O)c4ccoc4)CC3)N=C(N)N(C)C2=O)c1 (stereo not drawn) [Example 53],140 to 142 °C,0.01 to 1,
COCC(=O)Nc1cccc(C2(C3CCN(C(=O)c4ccc5ccccc5c4)CC3)N=C(N)N(C)C2=O)c1 (stereo not drawn) [Example 54],168 to 170 °C,0.01 to 1,
COCC(=O)Nc1cccc(C2(C3CCN(C(=O)COC)CC3)N=C(N)N(C)C2=O)c1 (stereo not drawn) [Example 56],79 to 80 °C,1.01 to 3,

# The next lines start with results.
melting point,"IC50 [1, 2] [µM]",Compound,IC50 [1] [µM]
141 to 143 °C,1.01 to 3,"CN1C(=O)C(c2cccc(-c3ccccc3)c2)(C2CCN(C(=O)c3cccc(C#N)c3)CC2)N=C1N (stereo not drawn) [Example 17, 3-({4-[2-amino-4-(1,1′-biphenyl-3-yl)-1-methyl-5-oxo-4,5-dihydro-1H -imidazol-4-yl]piperidin-1-yl}carbonyl)benzonitrile]",
131 to 133 °C,0.01 to 1,"CCCOc1ccc(C(=O)N2CCC(C3(c4cccc(-c5ccccc5)c4)N=C(N)N(C)C3=O)CC2)cc1 (stereo not drawn) [Example 22, 2-amino-5-(1,1′-biphenyl-3-yl)-3-methyl-5-[1-(4-propoxybenzoyl)piperidin4-yl]-3,5-dihydro4H-imidazol-4-one]",
189 to 190 °C,0.01 to 1,"CN1C(=O)C(c2cccc(C3CCCCC3)c2)(C2CCN(C(=O)c3ccccc3)CC2)N=C1N (stereo not drawn) [Example 24, 2-amino-5-(1-benzoylpiperidin-4-yl)-5-(3-cyclohexylphenyl)-3-methyl-3,5-dihydr-4H -imidazol-4-one]",
170 to 174 °C,> 3,"COCC(=O)Nc1cccc(C2(C3CCNCC3)N=C(N)N(C)C2=O)c1 (stereo not drawn) [Example 32, N-[3-(2-Amino-1-methyl-5-oxo4-piperldin-4-yl-4,5-dihydro-1H -imidazol-4-yl)phenYl]-2-methoxyacetamide]",
161 to 163 °C,0.01 to 1,"COCC(=O)Nc1cccc(C2(C3CCN(C(=O)c4ccc(C(=O)OC)cc4)CC3)N=C(N)N(C)C2=O)c1 (stereo not drawn) [Example 35, Methyl 4-{[4-(2-amino-4-{3-[(methoxyacetyl)amino]phenyl}-1-methyl-5-oxo-4,5-dihydro-1H-imidazol-4-yl)piperidin-1-yl]carbonyl}benzoate]",
> 250 °C,0.01 to 1,"COCC(=O)Nc1cccc(C2(C3CCN(C(=O)c4ccc(C(=O)[O-])cc4)CC3)N=C(N)N(C)C2=O)c1.[Na+] (stereo not drawn) [Example 36, Sodium 4-{[4-(2-Amino4-{3-[(methoxyacetyl)amino]phenyl}-1-methyl-5-oxo-4,5-dihydro-1H-imidazol-4-yl)piperidin-1-yl]carbonyl}benzoate]",
131 to 133 °C,0.01 to 1,COCC(=O)Nc1cccc(C2(C3CCN(C(=O)CC4CCCCC4)CC3)N=C(N)N(C)C2=O)c1 (stereo not drawn) [Example 38],
134 to 136 °C,0.01 to 1,COCC(=O)Nc1cccc(C2(C3CCN(C(=O)C4CCCC4)CC3)N=C(N)N(C)C2=O)c1 (stereo not drawn) [Example 40],
102 to 105 °C,1.01 to 3,CCC(CC)C(=O)N1CCC(C2(c3cccc(NC(=O)COC)c3)N=C(N)N(C)C2=O)CC1 (stereo not drawn) [Example 43],
130 to 133 °C,0.01 to 1,COCC(=O)Nc1cccc(C2(C3CCN(C(=O)c4ccccc4Cl)CC3)N=C(N)N(C)C2=O)c1 (stereo not drawn) [Example 45],
139 to 142 °C,0.01 to 1,COCC(=O)Nc1cccc(C2(C3CCN(C(=O)c4cc5ccccc5o4)CC3)N=C(N)N(C)C2=O)c1 (stereo not drawn) [Example 46],
135 to 138 °C,> 3,C#CCCC(=O)N1CCC(C2(c3cccc(NC(=O)COC)c3)N=C(N)N(C)C2=O)CC1 (stereo not drawn) [Example 47],
> 160 °C (dec.),0.01 to 1,COCC(=O)Nc1cccc(C2(C3CCN(C(=O)c4ccc5c(c4)OCO5)CC3)N=C(N)N(C)C2=O)c1 (stereo not drawn) [Example 51],
160 to 164 °C,0.01 to 1,COCC(=O)Nc1cccc(C2(C3CCN(C(=O)c4ccc(C#N)cc4)CC3)N=C(N)N(C)C2=O)c1 (stereo not drawn) [Example 52],
148 to 152 °C,0.01 to 1,COCC(=O)Nc1cccc(C2(C3CCN(C(=O)c4cccs4)CC3)N=C(N)N(C)C2=O)c1 (stereo not drawn) [Example 55],
120 to 122 °C,0.01 to 1,COCC(=O)Nc1cccc(C2(C3CCN(C(=O)C(F)(F)F)CC3)N=C(N)N(C)C2=O)c1 (stereo not drawn) [Example 58],

# From patent US20070191431A1, “2-Amino-5-piperidinylimidazolone compounds and use thereof for beta-secretase modulation” (Wyeth, priority 2005, published 2007)
